# Assay results: US20230312542A1, “HYDROXYPYRROLIDINE DERIVATIVE AND MEDICINAL APPLICATION THEREOF” (MITSUBISHI TANABE PHARMA CORPORATION, priority 2020, published 2023)
# Molecular target: VHL (co-expressed with Elongin B and Elongin C) (Homo sapiens (Human), UniProt P40337)
# Experiment: Measurement of intermolecular interactions using surface plasmon resonance (Biacore T200), Kd value for VHL
# Assay type: binding
# Details: SPR, immobilized VHL, 25° C.; read-out: Kd
# Text: As the device, Biacore T200 (manufactured by GE Healthcare) was used. VHL was obtained by co-expressing Elongin B and Elongin C with a Twin-Strep-tag added to the N-terminus. As the sensor chip, Sensor chip CM5 (manufactured by GE Healthcare) was used. First, Strep-Tactin XT (manufactured by GE Healthcare) was immobilized on the sensor chip by amine coupling. Thereafter, VHL was immobilized using the affinity of Strep-Tactin XT and Twin-Strep-tag, and VHL was further immobilized on the sensor chip by amine coupling.
# As the running buffer, a mixed solution of 20 mM HEPES pH 7.5, 150 mM NaCl, 1 mM TCEP, 0.005% Tween 20, and 2% DMSO was used. […] The Contact time and the Dissociation time were determined according to the properties of the compounds. For many compounds, 60 seconds and 120 seconds were respectively used.
# Chain of VHL (co-expressed with Elongin B and Elongin C) (P40337 whole entry, looked up): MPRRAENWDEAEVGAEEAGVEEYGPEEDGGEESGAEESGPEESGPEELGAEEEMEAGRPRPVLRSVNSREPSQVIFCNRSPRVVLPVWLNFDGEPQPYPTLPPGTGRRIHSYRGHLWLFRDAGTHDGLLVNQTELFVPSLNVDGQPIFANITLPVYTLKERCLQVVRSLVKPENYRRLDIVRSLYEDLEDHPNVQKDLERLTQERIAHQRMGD
# Chain of VHL (co-expressed with Elongin B and Elongin C) (Q15370 whole entry partner, looked up): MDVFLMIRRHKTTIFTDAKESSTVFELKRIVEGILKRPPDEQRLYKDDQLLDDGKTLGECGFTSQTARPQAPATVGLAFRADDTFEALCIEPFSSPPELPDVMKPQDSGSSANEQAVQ
# Chain of VHL (co-expressed with Elongin B and Elongin C) (Q15369 whole entry partner, looked up): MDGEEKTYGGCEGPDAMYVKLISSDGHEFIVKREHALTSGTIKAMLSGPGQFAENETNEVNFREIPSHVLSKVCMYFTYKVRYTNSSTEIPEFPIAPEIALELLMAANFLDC
row,Structure (SMILES),Kd [µM]
1,"CC(=O)N[C@H](C(=O)N1C[C@H](O)C[C@H]1c1nc(C(=O)N(C)Cc2ccc(-c3scnc3C)cc2)c[nH]1)C(C)(C)C [Example 35, 2-[(2S,4R)-1-[(2S)-2-acetamido-3,3-dimethylbutanoyl]-4-hydroxypyrrolidin-2-yl]-N-methyl-N-[[4-(4-methyl-1,3-thiazol-5-yl)phenyl]methyl]-1H-imidazole-4-carboxamide]",1 to 10
2,"CC(=O)N[C@H](C(=O)N1C[C@H](O)C[C@H]1c1nc(C(=O)N(C)Cc2ccncc2)c[nH]1)C(C)(C)C [Example 49, 2-[(2S,4R)-1-[(2S)-2-acetamido-3,3-dimethylbutanoyl]-4-hydroxypyrrolidin-2-yl]-N-methyl-N-(pyridin-4-ylmethyl)-1H-imidazole-4-carboxamide]",1 to 10
3,"COc1cccc(-c2nc([C@@H]3C[C@@H](O)CN3C(=O)C(c3cc(OC)no3)C(C)C)[nH]c2-c2cccc(OC)c2)c1 (stereo partly drawn) [Example 76, 1-[(2S,4R)-2-[4,5-bis(3-methoxyphenyl)-1H-imidazol-2-yl]-4-hydroxypyrrolidin-1-yl]-2-(3-methoxy-1,2-oxazol-5-yl)-3-methylbutan-1-one]",1 to 10
4,"CC(=O)N[C@H](C(=O)N1C[C@H](O)C[C@H]1c1nc(C(=O)N(C)Cc2cccc(F)c2)c[nH]1)C(C)(C)C [Example 18, 2-[(2S,4R)-1-[(2S)-2-acetamido-3,3-dimethylbutanoyl]-4-hydroxypyrrolidin-2-yl]-N-[(3-fluorophenyl)methyl]-N-methyl-1H-imidazole-4-carboxamide]",1 to 10
5,"CC(=O)N[C@H](C(=O)N1C[C@H](O)C[C@H]1c1nc(C(=O)N(C)Cc2cccc(-c3scnc3C)c2)c[nH]1)C(C)(C)C [Example 29, 2-[(2S,4R)-1-[(2S)-2-acetamido-3,3-dimethylbutanoyl]-4-hydroxypyrrolidin-2-yl]-N-methyl-N-[[3-(4-methyl-1,3-thiazol-5-yl)phenyl]methyl]-1H-imidazole-4-carboxamide]",1 to 10
6,"COc1cccc(CN(C)C(=O)c2c[nH]c([C@@H]3C[C@@H](O)CN3C(=O)[C@@H](NC(C)=O)C(C)(C)C)n2)c1 [Example 24, 2-[(2S,4R)-1-[(2S)-2-acetamido-3,3-dimethylbutanoyl]-4-hydroxypyrrolidin-2-yl]-N-[(3-methoxyphenyl)methyl]-N-methyl-1H-imidazole-4-carboxamide]",1 to 10
7,"CNC(=O)c1cccc(-c2cnc([C@@H]3C[C@@H](O)CN3C(=O)C(c3cc(OC)no3)C(C)C)[nH]2)c1 (stereo partly drawn) [Example 80, 3-[2-[(2S,4R)-4-hydroxy-1-[2-(3-methoxy-1,2-oxazol-5-yl)-3-methylbutanoyl]pyrrolidin-2-yl]-1H-imidazol-5-yl]-N-methylbenzamide]",1 to 10
8,"COc1ccc(-c2[nH]c([C@@H]3C[C@@H](O)CN3C(=O)C(c3cc(OC)no3)C(C)C)nc2C(F)(F)F)cc1 (stereo partly drawn) [Example 74, 1-[(2S,4R)-4-hydroxy-2-[5-(4-methoxyphenyl)-4-(trifluoromethyl)-1H-imidazol-2-yl]pyrrolidin-1-yl]-2-(3-methoxy-1,2-oxazol-5-yl)-3-methylbutan-1-one]",1 to 10
9,"COc1cc(C(C(=O)N2C[C@H](O)C[C@H]2c2nc(C(=O)N(C)[C@H](C)C(=O)NCc3ccccc3)c[nH]2)C(C)C)on1 (stereo partly drawn) [Example 159, N-[(1R)-2-(benzylamino)-1-methyl-2-oxo-ethyl]-2-[(2S,4R)-4-hydroxy-1-[2-(3-methoxyisoxazol-5-yl)-3-methylbutanoyl]pyrrolidin-2-yl]-N-methyl-1H-imidazole-4-carboxamide]",< 1
10,"COc1cc(C(C(=O)N2C[C@H](O)C[C@H]2c2nc(C(=O)N3CCCC(C(=O)Nc4ccccc4)C3)c[nH]2)C(C)C)on1 (stereo partly drawn) [Example 148, 1-[2-[(2S,4R)-4-hydroxy-1-[2-(3-methoxyisoxazol-5-yl)-3-methylbutanoyl]pyrrolidin-2-yl]-1H-imidazole-4-carbonyl]-N-phenylpiperidine-3-carboxamide]",1 to 10
11,"CC(=O)N[C@H](C(=O)N1C[C@H](O)C[C@H]1c1nc(C(=O)N(C)Cc2ccccc2C(F)(F)F)c[nH]1)C(C)(C)C [Example 20, 2-[(2S,4R)-1-[(2S)-2-acetamido-3,3-dimethylbutanoyl]-4-hydroxypyrrolidin-2-yl]-N-methyl-N-[[2-(trifluoromethyl)phenyl]methyl]-1H-imidazole-4-carboxamide]",1 to 10
12,"COc1cc(C(C(=O)N2C[C@H](O)C[C@H]2c2nc(C(=O)N(C)Cc3ccc(-c4ccc(C)nc4)cc3)c[nH]2)C(C)C)on1 (stereo partly drawn) [Example 154, 2-[(2S,4R)-4-hydroxy-1-[2-(3-methoxyisoxazol-5-yl)-3-methylbutanoyl]pyrrolidin-2-yl]-N-methyl-N-[[4-(6-methyl-3-pyridyl)phenyl]methyl]-1H-imidazole-4-carboxamide]",< 1
13,"CCCc1nnc(C(C(=O)N2C[C@H](O)C[C@H]2c2ncc[nH]2)C(C)C)o1 (stereo partly drawn) [Example 162, 1-[(2S,4R)-4-hydroxy-2-(1H-imidazol-2-yl)pyrrolidin-1-yl]-3-methyl-2-(5-propyl-1,3,4-oxadiazol-2-yl) butan-1-one]",10 to 50
14,"COc1ccc(CN(C)C(=O)c2c[nH]c([C@@H]3C[C@@H](O)CN3C(=O)[C@@H](NC(C)=O)C(C)(C)C)n2)cc1 [Example 25, 2-[(2S,4R)-1-[(2S)-2-acetamido-3,3-dimethylbutanoyl]-4-hydroxypyrrolidin-2-yl]-N-[(4-methoxyphenyl)methyl]-N-methyl-1H-imidazole-4-carboxamide]",1 to 10
15,"CC(=O)N[C@H](C(=O)N1C[C@H](O)C[C@H]1c1nc(C(=O)N(C)Cc2cccnc2)c[nH]1)C(C)(C)C [Example 53, 2-[(2S,4R)-1-[(2S)-2-acetamido-3,3-dimethylbutanoyl]-4-hydroxypyrrolidin-2-yl]-N-methyl-N-(pyridin-3-ylmethyl)-1H-imidazole-4-carboxamide]",1 to 10
16,"Cc1cc(-c2cnn(C(C(=O)N3C[C@H](O)C[C@H]3c3ncc[nH]3)C(C)C)c2)on1 (stereo partly drawn) [Example 160, 1-[(2S,4R)-4-hydroxy-2-(1H-imidazol-2-yl)pyrrolidin-1-yl]-3-methyl-2-[4-(3-methylisoxazol-5-yl)pyrazol-1-yl]butan-1-one]",10 to 50
17,"COc1cc(C(C(=O)N2C[C@H](O)C[C@H]2c2nc(C(=O)N3CCC(c4ccncc4)CC3)c[nH]2)C(C)C)on1 (stereo partly drawn) [Example 139, 1-[(2S,4R)-4-hydroxy-2-[4-[4-(4-pyridyl)piperidine-1-carbonyl]-1H-imidazol-2-yl]pyrrolidin-1-yl]-2-(3-methoxyisoxazol-5-yl)-3-methylbutan-1-one]",1 to 10
18,"COc1cc(C(C(=O)N2C[C@H](O)C[C@H]2c2nc(C(=O)N3CCN(c4ccccc4)CC3)c[nH]2)C(C)C)on1 (stereo partly drawn) [Example 140, 1-[(2S,4R)-4-hydroxy-2-[4-(4-phenylpiperazine-1-carbonyl)-1H-imidazol-2-yl]pyrrolidin-1-yl]-2-(3-methoxyisoxazol-5-yl)-3-methylbutan-1-one]",1 to 10
19,"CC(=O)N[C@H](C(=O)N1C[C@H](O)C[C@H]1c1nc(C(=O)N(C)Cc2cccc3ccccc23)c[nH]1)C(C)(C)C [Example 31, 2-[(2S,4R)-1-[(2S)-2-acetamido-3,3-dimethylbutanoyl]-4-hydroxypyrrolidin-2-yl]-N-methyl-N-(naphthalen-1-ylmethyl)-1H-imidazole-4-carboxamide]",1 to 10
20,"CNC(=O)c1ccc(-c2cnc([C@@H]3C[C@@H](O)CN3C(=O)C(c3cc(OC)no3)C(C)C)[nH]2)cc1 (stereo partly drawn) [Example 97, 4-[2-[(2S,4R)-4-hydroxy-1-[2-(3-methoxy-1,2-oxazol-5-yl)-3-methylbutanoyl]pyrrolidin-2-yl]-1H-imidazol-5-yl]-N-methylbenzamide]",1 to 10
21,"COc1cc(C(C(=O)N2C[C@H](O)C[C@H]2c2ncc[nH]2)C(C)C)on1 (stereo partly drawn) [Example 112, 1-[(2S,4R)-4-hydroxy-2-(1H-imidazol-2-yl)pyrrolidin-1-yl]-2-(3-methoxyisoxazol-5-yl)-3-methylbutan-1-one]",1 to 10
22,"CC(=O)N[C@H](C(=O)N1C[C@H](O)C[C@H]1c1nc(C(=O)N(C)Cc2ccccn2)c[nH]1)C(C)(C)C [Example 48, 2-[(2S,4R)-1-[(2S)-2-acetamido-3,3-dimethylbutanoyl]-4-hydroxypyrrolidin-2-yl]-N-methyl-N-(pyridin-2-ylmethyl)-1H-imidazole-4-carboxamide]",1 to 10
23,"CC(=O)N[C@H](C(=O)N1C[C@H](O)C[C@H]1c1ncc(-c2cccc(-c3scnc3C)c2)[nH]1)C(C)(C)C [Example 6, N-[(2S)-1-[(2S,4R)-4-hydroxy-2-[5-[3-(4-methyl-1,3-thiazol-5-yl)phenyl]-1H-imidazol-2-yl]pyrrolidin-1-yl]-3,3-dimethyl-1-oxobutan-2-yl]acetamide]",1 to 10
24,"CC(=O)N[C@H](C(=O)N1C[C@H](O)C[C@H]1c1nc(C(=O)N(C)Cc2ccccc2F)c[nH]1)C(C)(C)C [Example 17, 2-[(2S,4R)-1-[(2S)-2-acetamido-3,3-dimethylbutanoyl]-4-hydroxypyrrolidin-2-yl]-N-[(2-fluorophenyl)methyl]-N-methyl-1H-imidazole-4-carboxamide]",1 to 10
25,"CC(=O)N[C@H](C(=O)N1C[C@H](O)C[C@H]1c1nc(C(=O)N(C)Cc2ccccc2)c[nH]1)C(C)(C)C [Example 51, 2-[(2S,4R)-1-[(2S)-2-acetamido-3,3-dimethylbutanoyl]-4-hydroxypyrrolidin-2-yl]-N-benzyl-N-methyl-1H-imidazole-4-carboxamide]",1 to 10
26,"CNC(=O)c1ccccc1-c1cnc([C@@H]2C[C@@H](O)CN2C(=O)C(c2cc(OC)no2)C(C)C)[nH]1 (stereo partly drawn) [Example 64, 2-[2-[(2S,4R)-4-hydroxy-1-[2-(3-methoxy-1,2-oxazol-5-yl)-3-methylbutanoyl]pyrrolidin-2-yl]-1H-imidazol-5-yl]-N-methylbenzamide]",1 to 10
